Measured values reported in patent US10745382B2 (BRISTOL-MYERS SQUIBB COMPANY, priority 2015, dated 2020).
Where two headings read alike, the source gives them in different places.

Target: T1, PD-1/PD-L1 (Homo sapiens, UniProt Q9NZQ7)
T1 construct: made in house; host or cells: HEK293T
Test: PD-1/PD-L1 Homogenous Time-Resolved Fluorescence (HTRF) binding assay
Conditions: PD-L1-His 10 nM, PD-1-Ig 20 nM, read-out: Range or IC50
Method in brief: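 Additional pairs run were PD-1-Ig with PD-L2-His (20 & 5 nM) and CD80-His with PD-L1-Ig (100 & 10 nM), all human proteins. Buffer: dPBS plus 0.1% BSA, 0.05% Tween-20; time-resolved FRET read-out via 1 nM Eu-cryptate anti-Ig and 20 nM APC anti-His, final concentrations.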

T1 sequence (Q9NZQ7 with tags, fused parts or gaps): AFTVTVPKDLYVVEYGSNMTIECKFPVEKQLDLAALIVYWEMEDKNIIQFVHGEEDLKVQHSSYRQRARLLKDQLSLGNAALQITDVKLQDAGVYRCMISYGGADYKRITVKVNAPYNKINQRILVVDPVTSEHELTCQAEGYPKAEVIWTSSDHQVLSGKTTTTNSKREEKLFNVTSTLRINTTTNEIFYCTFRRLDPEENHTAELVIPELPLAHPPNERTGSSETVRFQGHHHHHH

| SMILES | IC50 (value given as range class) [nM] | IC50 (numeric IC50) [nM] |
| --- | --- | --- |
| Cc1c(COc2ccc(CN3CCCC[C@H]3C(=O)O)cc2Cl)cccc1-c1cccc(OCCCN2CC[C@@H](O)C2)c1C [Example 3072, (S)-1-(3-chloro-4-((3′-(3-((R)-3-hydroxypyrrolidin-1-yl)propoxy)-2,2′-dimethyl-[1,1′-biphenyl]-3-yl)methoxy)benzyl)piperidine-2-carboxylic Acid] | 0.21 to 10 |  |
| CC(C)=CCOc1cc(OCc2cccc(-c3cccc(OCCCN4CC[C@@H](O)C4)c3C)c2Cl)c(Cl)cc1CNC(CO)CO [Example 2321, (R)-2-((5-chloro-4-((2-chloro-3′-(3-(3-hydroxypyrrolidin-1-yl)propoxy)-2′-methyl-[1,1′-biphenyl]-3-yl)methoxy)-2-((3-methylbut-2-en-1-yl)oxy)benzyl)amino)propane-1,3-diol] | 0.21 to 10 |  |
| Cc1c(COc2cc(OCc3cncc(C#N)c3)c(CNC(C)(CO)CO)cc2Cl)cccc1-c1cccc(OCCCNC[C@H](O)CO)c1C [Example 2297, (S)-5-((4-chloro-2-(((1,3-dihydroxy-2-methylpropan-2-yl)amino)methyl)-5-((3′-(3-((2,3-dihydroxypropyl)amino)propoxy)-2,2′-dimethyl-[1,1′-biphenyl]-3-yl)methoxy)phenoxy)methyl)nicotinonitrile] | 0.21 to 10 |  |
| Cc1cc(OCCCCN2CC[C@@H](O)C2)ccc1-c1cccc(COc2cc(OCc3cncc(C#N)c3)c(CN[C@H](CO)C(=O)O)cc2Cl)c1C [Example 1092, (5-chloro-2-((5-cyanopyridin-3-yl)methoxy)-4-((4′-(4-((R)-3-hydroxypyrrolidin-1-yl)butoxy)-2,2′-dimethyl-[1,1′-biphenyl]-3-yl)methoxy)benzyl)-D-serine] | 0.21 to 10 |  |
| COC(=O)C1(O)CCN(CCCOc2cccc(-c3cccc(COc4cc(OCc5cncc(C#N)c5)c(CN[C@](C)(CO)C(=O)O)cc4Cl)c3C)c2C)C1 (stereo partly drawn) [Example 1046, (2R)-2-((5-chloro-2-((5-cyanopyridin-3-yl)methoxy)-4-((3′-(3-(3-hydroxy-3-(methoxycarbonyl)pyrrolidin-1-yl)propoxy)-2,2′-dimethyl-[1,1′-biphenyl]-3-yl)methoxy)benzyl)amino)-3-hydroxy-2-methylpropanoic Acid] | 0.21 to 10 |  |
| Cc1c(COc2cc(OCc3cncc(C#N)c3)c(CN[C@](C)(CO)C(=O)O)cc2Cl)cccc1-c1cccc(OCCCN[C@](C)(CO)C(=O)O)c1Cl [Example 2023, (R)-2-((3-((3′-((4-((((R)-2-carboxy-1-hydroxypropan-2-yl)amino)methyl)-2-chloro-5-((5-cyanopyridin-3-yl)methoxy)phenoxy)methyl)-2-chloro-2′-methyl-[1,1′-biphenyl]-3-yl)oxy)propyl)amino)-3-hydroxy-2-methylpropanoic Acid] | 0.21 to 10 |  |
| Cc1c(COc2cc(OCc3cncc(C#N)c3)c(CN3CCCC[C@H]3C(=O)O)cc2Cl)cccc1-c1cccc(OCCCNC[C@H](O)CO)c1C [Example 2333, (S)-1-(5-chloro-2-((5-cyanopyridin-3-yl)methoxy)-4-((3′-(3-(((S)-2,3-dihydroxypropyl)amino)propoxy)-2,2′-dimethyl-[1,1′-biphenyl]-3-yl)methoxy)benzyl)piperidine-2-carboxylic Acid] |  | 0.9 |
| Cc1c(COc2cc(OCc3cncc(C#N)c3)c(CN[C@](C)(CO)C(=O)O)cc2Cl)cccc1-c1cccc(OCCCN2CCC(CO)(C(=O)O)CC2)c1Cl [Example 1115, (R)-1-(3-((3′-((4-(((2-carboxy-1-hydroxypropan-2-yl)amino)methyl)-2-chloro-5-((5-cyanopyridin-3-yl)methoxy)phenoxy)methyl)-2-chloro-2′-methyl-[1,1′-biphenyl]-3-yl)oxy)propyl)-4-(hydroxymethyl)piperidine-4-carboxylic Acid] | 0.21 to 10 |  |
| Cc1c(COc2cc(OCc3cncc(C#N)c3)c(CNC(C)(CO)CO)cc2Cl)cccc1-c1cccc(OCCCN2CC[C@@H](O)C2)c1Cl [Example 2104, (R)-5-((4-chloro-5-((2′-chloro-3′-(3-(3-hydroxypyrrolidin-1-yl)propoxy)-2-methyl-[1,1′-biphenyl]-3-yl)methoxy)-2-(((1,3-dihydroxy-2-methylpropan-2-yl)amino)methyl)phenoxy)methyl)nicotinonitrile] | 0.21 to 10 |  |
| Cc1c(OCCCN2CCOCC2)cccc1-c1cccc(COc2cc(OCc3cncc(C#N)c3)c(CN3CCCC[C@H]3C(=O)O)cc2Cl)c1Cl [Example 2309, (S)-1-(5-chloro-4-((2-chloro-2′-methyl-3′-(3-morpholinopropoxy)-[1,1′-biphenyl]-3-yl)methoxy)-2-((5-cyanopyridin-3-yl)methoxy)benzyl)piperidine-2-carboxylic Acid] |  | 3 |
| Cc1ccccc1-c1cccc(COc2cc(OCc3cncc(C#N)c3)c(CN3CCCC[C@H]3C(=O)O)cc2Cl)c1C [Example 3023, (S)-1-(5-chloro-2-((5-cyanopyridin-3-yl)methoxy)-4-((2,2′-dimethyl-[1,1′-biphenyl]-3-yl)methoxy)benzyl)piperidine-2-carboxylic Acid] | 0.21 to 10 |  |
| Cc1c(COc2cc(OCc3cncc(C#N)c3)c(CN(C)C(CO)CO)cc2Cl)cccc1-c1cccc(OCCCNC[C@H](O)CO)c1Cl [Example 2057, (S)-5-((4-chloro-5-((2′-chloro-3′-(3-((2,3-dihydroxypropyl)amino)propoxy)-2-methyl-[1,1′-biphenyl]-3-yl)methoxy)-2-(((1,3-dihydroxypropan-2-yl)(methyl)amino)methyl)phenoxy)methyl)nicotinonitrile] | 0.21 to 10 |  |
| Cc1c(OCCCN2CCCCC2)cccc1-c1cccc(COc2cc(OCc3cncc(C#N)c3)c(CNC(CO)CO)cc2Cl)c1Cl [Example 2301, 5-((4-chloro-5-((2-chloro-2′-methyl-3′-(3-(piperidin-1-yl)propoxy)-[1,1′-biphenyl]-3-yl)methoxy)-2-(((1,3-dihydroxypropan-2-yl)amino)methyl)phenoxy)methyl)nicotinonitrile] | 0.21 to 10 |  |
| Cc1c(COc2cc(OCc3cncc(C#N)c3)c(CN3CCCC[C@H]3C(=O)O)cc2Cl)cccc1-c1cccc(OCCCN2CCC(CO)(C(=O)O)C2)c1Cl (stereo partly drawn) [Example 1106, (2S)-1-(4-((3′-(3-(3-carboxy-3-(hydroxymethyl)pyrrolidin-1-yl)propoxy)-2′-chloro-2-methyl-[1,1′-biphenyl]-3-yl)methoxy)-5-chloro-2-((5-cyanopyridin-3-yl)methoxy)benzyl)piperidine-2-carboxylic Acid] |  | 1 |
| Cc1c(COc2cc(OCc3cncc(C#N)c3)c(CN3CCCC[C@H]3C(=O)O)cc2Cl)cccc1-c1cccc(OCCCN2C[C@@H](C)O[C@@H](C)C2)c1C [Example 3049, (S)-1-(5-chloro-2-((5-cyanopyridin-3-yl)methoxy)-4-((3′-(3-((2S,6R)-2,6-dimethylmorpholino)propoxy)-2,2′-dimethyl-[1,1′-biphenyl]-3-yl)methoxy)benzyl)piperidine-2-carboxylic Acid] | 0.21 to 10 |  |

Continued, values first:

| IC50 (value given as range class) [nM] | IC50 (numeric IC50) [nM] | SMILES |
| --- | --- | --- |
|  | 5 | CCN(CCCOc1cccc(-c2cccc(COc3cc(OCc4cncc(C#N)c4)c(CN(CC)C[C@H](O)CO)cc3Cl)c2C)c1Cl)C[C@H](O)CO [Example 2075, 5-((4-chloro-5-((2′-chloro-3′-(3-(((S)-2,3-dihydroxypropyl)(ethyl)amino)propoxy)-2-methyl-[1,1′-biphenyl]-3-yl)methoxy)-2-((((S)-2,3-dihydroxypropyl)(ethyl)amino)methyl)phenoxy)methyl)nicotinonitrile] |
| 0.21 to 10 |  | Cc1c(COc2cc(OCc3cncc(C#N)c3)c(CNC[C@H](O)CO)cc2Cl)cccc1-c1cccc(OCCCN2CC(N(C)C)C2)c1Cl [Example 2028, (S)-5-((4-chloro-5-((2′-chloro-3′-(3-(3-(dimethylamino)azetidin-1-yl)propoxy)-2-methyl-[1,1′-biphenyl]-3-yl)methoxy)-2-(((2,3-dihydroxypropyl)amino)methyl)phenoxy)methyl)nicotinonitrile] |
| 0.21 to 10 |  | Cc1c(COc2cc(OCc3cncc(C#N)c3)c(CNC(C)(CO)CO)cc2Cl)cccc1-c1cccc(OCCCN2CCC(CO)CC2)c1C [Example 2288, 5-((4-chloro-2-(((1,3-dihydroxy-2-methylpropan-2-yl)amino)methyl)-5-((3′-(3-(4-(hydroxymethyl)piperidin-1-yl)propoxy)-2,2′-dimethyl-[1,1′-biphenyl]-3-yl)methoxy)phenoxy)methyl)nicotinonitrile] |
| 0.21 to 10 |  | Cc1c(COc2cc(OCc3cncc(C#N)c3)c(CN[C@@](C)(CO)C(=O)O)cc2Cl)cccc1-c1cccc(OCCCN2CCN(CCO)CC2)c1C [Example 2263, (2S)-2-(5-chloro-2-((5-cyanopyridin-3-yl)methoxy)-4-((3′-(3-(4-(2-hydroxyethyl)piperazin-1-yl)propoxy)-2,2′-dimethylbiphenyl-3-yl)methoxy)benzylamino)-3-hydroxy-2-methylpropanoic Acid] |
| 0.21 to 10 |  | Cc1c(COc2cc(OCc3cncc(C#N)c3)c(CN3CCCC[C@H]3C(=O)O)cc2Cl)cccc1-c1cccc(OCCCN2CCOC(C(F)(F)F)C2)c1C (stereo partly drawn) [Example 3058, (2S)-1-(5-chloro-2-((5-cyanopyridin-3-yl)methoxy)-4-((2,2′-dimethyl-3′-(3-(2-(trifluoromethyl)morpholino)propoxy)-[1,1′-biphenyl]-3-yl)methoxy)benzyl)piperidine-2-carboxylic Acid] |
| 0.21 to 10 |  | Cc1c(COc2cc(OCc3cncc(C#N)c3)c(CN[C@@](C)(CO)C(=O)O)cc2Cl)cccc1-c1cccc(OCCCN2CCC(O)(c3ccccc3)C2)c1C (stereo partly drawn) [Example 3037, (2S)-2-((5-chloro-2-((5-cyanopyridin-3-yl)methoxy)-4-((3′-(3-(3-hydroxy-3-phenylpyrrolidin-1-yl)propoxy)-2,2′-dimethyl-[1,1′-biphenyl]-3-yl)methoxy)benzyl)amino)-3-hydroxy-2-methylpropanoic Acid] |
